≈ marks a conversion by molar mass, not a printed value. Where two headings read alike, the source gives them in different places.
Experiments:
Escherichia coli = assay: In vitro antibacterial activity, agar dilution MIC (Experiment 1); assay type: cell-based
Procedure: (§1) Tested strains: all the clinically separated strains below were purchased from public facilities.
(§2) Escherichia coli ATCC25922, Pseudomonas aeruginosa ATCC27853, Klebsiella pneumoniae ATCC700603, and the like.
(§3) Tested Samples: Imipenem, Ceftazidime: Commercial Products, the Following Experiments were Carried Out According to the Content of an Effective Ingredient in Each Commercial Product;
(§4) The compounds of the present invention, their chemical names, and preparation methods are shown in the preparation example of each compound.
(§5) Experiment method: Agar dilution method, refer to National Committee for Clinical Laboratory Standards. 2006. Methods for Dilution Antimicrobial Susceptibility Tests for Bacteria That Grow Aerobically; Approved Standard—Seventh Edition M7-A7, Vol 26, No. 2, 2006, to determine the MIC of the compound. MIC represents the minimum inhibitory concentration.

Pseudomonas aeruginosa [1] = assay: as above; assay type: cell-based
Procedure: as §1, §2, §3, §4, §5

[2] = test system: polymyxin-resistant mcr-1 positive Enterobacteriaceae; assay: In vitro antibacterial effect on polymyxin-resistant mcr-1 positive Enterobacteriaceae, agar dilution MIC (Experiment 2); assay type: cell-based, Escherichia coli; details: for MIC50 / MIC90: Escherichia coli; for MIC50: read-out: MIC50 Value, polymyxin-resistant mcr-1 positive Escherichia coli, agar dilution; for MIC90: read-out: MIC90 Value, polymyxin-resistant mcr-1 positive Escherichia coli, agar dilution; for MIC90 Value / MIC50 Value: polymyxin-resistant mcr-1 positive Escherichia coli, agar dilution
Procedure: Tested samples: the compounds of the present invention, prepared according to the methods of the preparation examples;
Polymyxin E sulphate, Ampicillin, Cefotaxime, Gentamicin, Ciprofloxacin, Tetracycline, and Bactrim were all commercial products, the following experiments were carried out according to the content of an effective ingredient in each commercial product.
Tested strains: Escherichia coli carrying mcr-1 gene isolated from animals and Escherichia coli ATCC25922, a quality control strain, were provided by South China Agricultural University.
With reference to the agar dilution method in CLSI, the MIC value of the tested drugs to the polymyxin resistant mcr-1 positive Escherichia coli were determined.
Preparation of drug-containing agar plates: a drug solution with the highest concentration was prepared for each compound; the drug solution with the highest concentration was subjected to the double dilution; for each of dilution gradient, 1 mL (20×drug working solution) of the drug solution was added to 19 mL MH agar at 45-50° C.; immediately after addition, the agar and the drug solution were uniformly mixed to give a drug-containing agar plate with final concentrations of […], and the plate was solidified for later use; and in the meanwhile, a growth control group was arranged.
Inoculum preparation and culture: the strains stored at −80° C. were rejuvenated and formulated with broth so that the turbidity reached or exceeded 0.5 #McFarland unit; a 96-well plate was used as the inoculation tank, and the bacterial solution was diluted with sodium chloride injection so that the content of bacteria inoculated on the agar was 10^4 CFU/point. A multi-point inoculation instrument was used to inoculate the bacterial solution to the surface of the labeled drug-containing agar. After the water in the inoculation point was completely absorbed by the agar, the plate was placed upside down in a 37° C. constant-temperature incubator and incubated for 16-20 hours.

[3] = Pharmacokinetics (PK) determination in SD rats (Experiment 4); assay type: in vivo; details: plasma; for Cl_obs / Vz_obs / t1/2z / λ_z: IV 2 mg/kg; for AUC(0-t) / AUC(0-inf): Sprague-Dawley (SD), rat, iv, 2 mg/kg; for AUC(0-inf): read-out: AUCINF_obs
Procedure: The compound of the present invention, self-prepared and dissolved in a suitable solvent.
Instrument and equipment: API4000 LC-MS/MS
Chromatographic column: Waters XBridge C18(2.1×50 mm, […])
Rat blood collection: Animals were fixed. The animal's tail was heated with a water bathtub 10 minutes before each time point. About 200 μL of the blood was collected through the caudal vein. After the blood collection, the blood was placed in an anticoagulation tube containing heparin sodium. The blood samples were centrifuged at 8000 rpm for 6 minutes at 4° C. to obtain plasma samples. The plasma must be prepared within 30 minutes after the blood collection. The plasma was stored in a refrigerator at −80° C. before the test.
(1) Test samples were removed from the refrigerator (−80° C.), naturally thawed at room temperature, and then vortexed for 5 minutes;
(2) 20 μL sample was precisely pipetted to a 1.5 mL centrifuge tube;
(3) 200 μL of the internal standard solution was added;
(4) The mixture was vortexed for 5 minutes and centrifuged for 5 minutes (12000 revolutions per minute);
(5) 100 μL of the supernate was precisely pipetted, 100 μL of water was added, the mixture was vortexed for 5 minutes, and the sample was sent to LC-MS/MS for analysis.
The results of the concentrations of the test samples (plasma samples) were output with Analyst 1.6.1 of AB Corporation. The meaning value, the standard deviation, the coefficient of variation, and other parameters (not necessary to calculate the parameter that can be directly output from Analyst 1.6.1) were calculated with Microsoft Excel, and the PK parameter is calculated with Pharsight Phoenix 6.1 software.

Klebsiella pneumoniae = assay: In vitro antibacterial activity, agar dilution MIC (Experiment 1); assay type: cell-based
Procedure: as §1, §2, §3, §4, §5

Pseudomonas aeruginosa [4] = assay: In vitro antibacterial activity against Pseudomonas aeruginosa, agar dilution MIC (Experiment 3); assay type: cell-based; details: CLSI 2018 (Table 5)
Procedure: Tested samples: the compound of the present invention, prepared according to the preparation example method; Compound C, prepared with reference to WO2008154642A2.
With reference to the steps of the agar dilution method in the 2018 USA Clinical and Laboratory Standards Institute (CLSI), the determination of the minimum inhibitory concentration (MIC) of the compounds against the strain(s) was carried out.
Preparation of drug-containing plate: (1) a drug solution with the highest concentration was prepared, and the highest concentration of each compound was 160 μg/mL. (2) For each compound, the drug solution with the highest concentration was subjected to the double dilution, and a total of 10 concentration gradients was obtained; for each of dilution gradient, 2 mL of the drug solution was added to 18 mL MH agar solution which had been autoclaved at 121° C. and cooled to about 50° C.; the mixture was uniformly mixed, left stand and cooled to give a drug-containing plate; and the plate was labeled. The final concentrations of the compound were respectively 16, 8, 4, 2, 1, 0.5, 0.25, 0.125, 0.06 and 0.03 μg/mL.
Inoculum preparation and inoculation: A fresh single colony was selected, diluted with 0.9% sodium chloride injection, adjusted to 0.5 #McFarland turbidity, and then diluted 10 times with 0.9% sodium chloride injection, then inoculated with an automatic multi-point inoculation instrument to the labeled drug-containing plate.

[5] = agar dilution (Table 3), read-out: MIC50
[6] = agar dilution (Table 3), read-out: MIC90

Compound	MIC50 (Escherichia coli; agar dilution, read-out: MIC50) [µg/mL]	MIC90 (Escherichia coli; agar dilution, read-out: MIC90) [µg/mL]	MIC50 (Pseudomonas aeruginosa [1]; [5]) [µg/mL]	MIC90 (Pseudomonas aeruginosa [1]; [6]) [µg/mL]	MIC50 [2] [µg/mL]	MIC90 [2] [µg/mL]	Cl_obs [3] [mL/min/kg]	Vz_obs [3] [L/kg]	t1/2z [3] [min]	λ_z [3] [h⁻¹]	AUC(0-t) [3] [ng·h/mL]	AUC(0-inf) [3] [ng·h/mL]	also measured
C[C@@H](O)[C@H](NC(=O)c1ccc(C#CC#Cc2ccc(CNCCCN3CCOCC3)o2)cc1)C(=O)NO [Compound 22, N-((2S,3R)-3-hydroxy-1-(hydroxyamino)-1-oxobutan-2-yl)-4-((5-((3-morpholinopropylamino)methyl)furan-2-yl)buta-1,3-diynyl)benzamide]	0.5 (≈ 0.983 µM)	2 (≈ 3.93 µM)	4 (≈ 7.87 µM)	> 16	–	–	–	–	–	–	–	–	–
O=C(O)c1cn(C2CC2)c2cc(N3CCNCC3)c(F)cc2c1=O [Ciprofloxacin]	–	–	–	–	4 (≈ 12.1 µM)	32 (≈ 96.6 µM)	–	–	–	–	–	–	–
C[C@@H](O)[C@H](NC(=O)c1ccc(C#CC#Cc2ccc(CN(C)C)o2)cc1)C(=O)NO [Compound 4, 4-((5-((dimethylamino)methyl)furan-2-yl)buta-1,3-diynyl)-N-((2S,3R)-3-hydroxy-1-(hydroxyamino)-1-oxobutan-2-yl)benzamide]	–	–	–	–	–	–	80 ± 1.83	1.74 ± 0.81	15 ± 7.2	3.16 ± 1.28	414 ± 10.3	417 ± 9.68	MIC50 (Escherichia coli): 0.25 µg/mL (≈ 0.611 µM); MIC90 (Escherichia coli): 0.25 µg/mL (≈ 0.611 µM); MIC50 (Klebsiella pneumoniae): 1 µg/mL (≈ 2.44 µM); MIC90 (Klebsiella pneumoniae): 2 µg/mL (≈ 4.88 µM); MIC50 (Pseudomonas aeruginosa [1]): 1 µg/mL (≈ 2.44 µM); MIC90 (Pseudomonas aeruginosa [1]): 4 µg/mL (≈ 9.77 µM)
C[C@@H](O)[C@H](NC(=O)c1ccc(C#CC#Cc2ccc(CNCCOCCO)o2)cc1)C(=O)NO [Compound 18, N-((2S,3R)-3-hydroxy-1-(hydroxyamino)-1-oxobutan-2-yl)-4-((5-((2-(2-hydroxyethoxy)ethylamino)methyl)furan-2-yl)buta-1,3-diynyl)benzamide]	–	–	1 (≈ 2.13 µM)	4 (≈ 8.52 µM)	–	–	–	–	–	–	–	–	MIC50 (Klebsiella pneumoniae; agar dilution, read-out: MIC50): 2 µg/mL (≈ 4.26 µM); MIC90 (Klebsiella pneumoniae; agar dilution, read-out: MIC90): 2 µg/mL (≈ 4.26 µM)
C[C@@H](O)[C@H](NC(=O)c1ccc(C#CC#Cc2ccc(CO)cc2)cc1)C(=O)NO [Compound C]	–	–	–	–	–	–	–	–	–	–	–	–	MIC50 (Pseudomonas aeruginosa [4]): 4 µg/mL (≈ 10.2 µM); MIC90 (Pseudomonas aeruginosa [4]): >16 µg/mL; MIC90 (Pseudomonas aeruginosa [4]; read-out: MIC90): > 16 µg/mL
CNC(=O)C(C(=O)NO)N(C)C(=O)c1ccc(C#CC#Cc2ccc(CO)o2)cc1 (stereo not drawn) [Compound 5, N-methyl-N-(3-methylamino-1-(hydroxyamino)-1,3-dioxopropan-2-yl)-4-((5-(hydroxymethyl)furan-2-yl)buta-1,3-diynyl)benzamide]	2 (≈ 4.89 µM)	4 (≈ 9.77 µM)	–	1 (≈ 2.44 µM)	–	0.5 (≈ 1.22 µM)	10.3 ± 1.3	0.63 ± 0.02	42.6 ± 6.6	0.99 ± 0.15	8110 ± 1050	8150 ± 1040	MIC90 Value [2]: 1 µg/mL (≈ 2.44 µM); MIC50 (Pseudomonas aeruginosa [1]): 0.125 µg/mL (≈ 0.305 µM)
CO/N=C(\C(=O)N[C@@H]1C(=O)N2C(C(=O)O)=C(COC(C)=O)CS[C@H]12)c1csc(N)n1 [Cefotaxime]	–	–	–	–	2 (≈ 4.39 µM)	128 (≈ 281 µM)	–	–	–	–	–	–	–
C[C@@H](O)[C@H](NC(=O)c1ccc(C#CC#Cc2ccc(CNC3CC3)o2)cc1)C(=O)NO [Compound 11, 4-((5-((cyclopropylamino)methyl)furan-2-yl)buta-1,3-diynyl)-N-((2S,3R)-3-hydroxy-1-(hydroxamino)-1-oxobutan-2-yl)benzamide]	0.125 (≈ 0.297 µM)	0.25 (≈ 0.593 µM)	1 (≈ 2.37 µM)	8 (≈ 19 µM)	–	–	–	–	–	–	–	–	MIC50 (Klebsiella pneumoniae; agar dilution, read-out: MIC50): 0.5 µg/mL (≈ 1.19 µM); MIC90 (Klebsiella pneumoniae; agar dilution, read-out: MIC90): 2 µg/mL (≈ 4.75 µM)
C[C@@H](O)[C@H](NC(=O)c1ccc(C#CC#Cc2ccc(CO)n2C)cc1)C(=O)NO [Compound 33, N-((2S,3R)-3-hydroxy-1-(hydroxamino)-1-oxobutan-2-yl)-4-((5-(hydroxymethyl)-1-methyl-1H-pyrrol-2-yl)buta-1,3-diynyl)benzamide]	–	–	–	–	–	–	56.5 ± 22.3	1.21 ± 0.34	15.6 ± 2.4	2.75 ± 0.50	666 ± 318	671 ± 315	MIC50 (Escherichia coli): 0.125 µg/mL (≈ 0.316 µM); MIC90 (Escherichia coli): 0.125 µg/mL (≈ 0.316 µM); MIC50 (Klebsiella pneumoniae): 0.5 µg/mL (≈ 1.26 µM); MIC90 (Klebsiella pneumoniae): 1 µg/mL (≈ 2.53 µM); MIC50 (Pseudomonas aeruginosa [1]): 1 µg/mL (≈ 2.53 µM); MIC90 (Pseudomonas aeruginosa [1]): 8 µg/mL (≈ 20.2 µM)
Gentamicin	–	–	–	–	–	–	–	–	–	–	–	–	MIC50 Value [2]: 4 µg/mL; MIC90 Value [2]: 64 µg/mL
C[C@@H](O)[C@H](NC(=O)c1ccc(C#CC#Cc2ccc(CN3CCOCC3)o2)cc1)C(=O)NO [Compound 23, N-((2S,3R)-3-hydroxy-1-(hydroxyamino)-1-oxobutan-2-yl)-4-((5-(morpholinomethyl)furan-2-yl)buta-1,3-diynyl)benzamide]	0.25 (≈ 0.554 µM)	0.25 (≈ 0.554 µM)	1 (≈ 2.21 µM)	8 (≈ 17.7 µM)	–	–	30 ± 8.33	0.52 ± 0.02	12.6 ± 3.6	3.47 ± 1.09	1160 ± 278	1160 ± 277	MIC50 (Klebsiella pneumoniae; agar dilution, read-out: MIC50): 1 µg/mL (≈ 2.21 µM); MIC90 (Klebsiella pneumoniae; agar dilution, read-out: MIC90): 1 µg/mL (≈ 2.21 µM)
CN(C)[C@@H]1C(O)=C(C(N)=O)C(=O)[C@@]2(O)C(O)=C3C(=O)c4c(O)cccc4[C@@](C)(O)[C@H]3C[C@@H]12 [Tetracycline]	–	–	–	–	32 (≈ 72 µM)	64 (≈ 144 µM)	–	–	–	–	–	–	–
C[C@@H](O)[C@H](NC(=O)c1ccc(C#CC#Cc2ccc(CO)s2)cc1)C(=O)NO [Compound 41, N-((2S,3R)-3-hydroxy-1-(hydroxyamino)-1-oxobutan-2-yl)-4-((5-(hydroxymethyl)thienyl-2-yl)buta-1,3-diynyl)benzamide]	≤ 0.03	0.06 (≈ 0.151 µM)	0.25 (≈ 0.627 µM)	1 (≈ 2.51 µM)	–	–	22 ± 5.5	0.61 ± 0.20	19.2 ± 2.4	2.21 ± 0.29	1590 ± 447	1590 ± 446	MIC50 (Klebsiella pneumoniae; agar dilution, read-out: MIC50): 0.125 µg/mL (≈ 0.314 µM); MIC90 (Klebsiella pneumoniae; agar dilution, read-out: MIC90): 0.25 µg/mL (≈ 0.627 µM)
Polymyxin E sulphate	–	–	–	–	–	–	–	–	–	–	–	–	MIC50 Value [2]: 16 µg/mL; MIC90 Value [2]: 32 µg/mL
CC1(C)S[C@@H]2[C@H](NC(=O)[C@H](N)c3ccccc3)C(=O)N2[C@H]1C(=O)O [Ampicillin]	–	–	–	–	> 128	> 128	–	–	–	–	–	–	–
C[C@@H](O)[C@H]1C(=O)N2C(C(=O)O)=C(SCCN=CN)C[C@H]12 [Imipenem, reference compound]	–	–	2 (≈ 6.68 µM)	16 (≈ 53.4 µM)	0.125 (≈ 0.418 µM)	4 (≈ 13.4 µM)	–	–	–	–	–	–	–
